# Measurements reported in patent publication US20070167412A1, “HALOCOMBSTATINS AND METHODS OF SYNTHESIS THEREOF” (ARIZONA BOARD OF REGENTS, priority 2003, published 2007).
# What was measured:
# [1] = test system: Breast MCF-7; experiment: human cancer cell growth inhibition, sulforhodamine B assay; type: cell-based; details: Table I, 48 hours; for GI50: Homo sapiens, MCF7, read-out: Human cancer cell line inhibition (GI50) Breast adn MCF-7
# Protocol: (§1) Inhibition of human cancer cell growth was assessed using the National Cancer Institute's standard sulforhodamine B assay. After 48 hours, the plates were fixed with trichloracetic acid, stained with sulforhodamine B and read with an automated microplate reader. […] Inhibition of the mouse leukemia P388 cells was assessed in a 10% horse serum/Fisher medium soution for 24 hours, followed by a 48 hour incubation with serial dilutions of the compounds. Cell growth inhibition (ED50) was then calculated using a Z1 Becleman/Coulter particle counter.
# [2] = test system: CNS SF268; experiment: as above; type: cell-based; details: Table I, 48 hours; for GI50: Homo sapiens, SF-268, read-out: Human cancer cell line inhibition (GI50) CNS SF268
# Protocol: as §1
# [3] = test system: Colon KM20L2; experiment: as above; type: cell-based; details: Table I, 48 hours; for GI50: Homo sapiens, KM-20L2, read-out: Human cancer cell line inhibition (GI50) Colon KM20L2
# Protocol: as §1
# [4] = test system: Lung-NSC NCI-H460; experiment: as above; type: cell-based; details: Table I, 48 hours; for GI50: Homo sapiens, NCI-H460, read-out: Human cancer cell line inhibition (GI50) Lung-NSC NCI-H460
# Protocol: as §1
# [5] = test system: Pancreas BXPC-3; experiment: as above; type: cell-based; details: Table I, 48 hours; for GI50: Homo sapiens, BXPC-3, read-out: Human cancer cell line inhibition (GI50) Pancreas-a BXPC-3
# Protocol: as §1
# [6] = test system: Prostate DU-145; experiment: as above; type: cell-based; details: Table I, 48 hours; for GI50: Homo sapiens, DU-145, read-out: Human cancer cell line inhibition (GI50) Prostate DU-145
# Protocol: as §1
# [7] = test system: Candida albicans; experiment: reference broth microdilution susceptibility assay; type: cell-based; details: Table III
# From the text: (§2) The halocombstatins of the present invention appear to also have antimicrobial properties. More specifically, they appear to have antifungal and/or antibacterial properties. Antimicrobial evaluation of the halocombstatins involved susceptibility testing performed by the reference broth microdilution assay. The antimicrobial activities of the halocombstatins were very similar, targeting Gram-positive bacteria and the pathogenic fungi Cryptococcus neoformans, and results are shown in Table III.
# (§3) (See Pettit, G. R., et al., Antineoplastic Agents 463. Synthesis of Combretastatin A-3 Diphosphates, Anticancer Drug Design 2000, 15, 397-404.) To determine the antimicrobial activity of the present compounds, susceptibility testing was performed by the reference broth microdilution assay. (See National Committee for Clinical Laboratory Standards. Methods for Dilution Antimicrobial Susceptibility Tests for Bacteria that Grow Aerobically. Approved Standard M7-A5. Wayne, P A: NCCLS, 2000. National Committee for Clinical Laboratory Standards. Reference Method for Broth Dilution Antifungal Susceptibility Testing of Yeasts. Aproved Standard M27-A. Wayne, P A: NCCLS, 1997.) The antimicrobial activities of the halocombretastatins of the present invention were very similar, targeting Gram-positive bacteria and Cryptococcus neoformans. This is illustrated in further detail in Table III. Thus, several of the novel compounds of the present invention appear to have potential as antimicrobial agents, such as antifingals and antibacterials.
# [8] = test system: Cryptococcus neoformans; experiment: reference broth microdilution susceptibility assay; type: cell-based; details: Table III
# From the text: as §2, §3
# [9] = test system: Enterobacter cloacae; experiment: reference broth microdilution susceptibility assay; type: cell-based; details: Table III
# From the text: as §2, §3
# [10] = test system: Enterococcus faecalis; experiment: reference broth microdilution susceptibility assay; type: cell-based; details: Table III
# From the text: as §2, §3
# [11] = test system: Escherichia coli; experiment: reference broth microdilution susceptibility assay; type: cell-based; details: Table III
# From the text: as §2, §3
# [12] = test system: Micrococcus luteus; experiment: reference broth microdilution susceptibility assay; type: cell-based; details: Table III
# From the text: as §2, §3
# [13] = test system: Neisseria gonorrhoeae; experiment: reference broth microdilution susceptibility assay; type: cell-based; details: Table III
# From the text: as §2, §3
# [14] = test system: Staphylococcus aureus; experiment: reference broth microdilution susceptibility assay; type: cell-based; details: Table III
# From the text: as §2, §3
# [15] = test system: Stenotrophomonas maltophilia; experiment: reference broth microdilution susceptibility assay; type: cell-based; details: Table III
# From the text: as §2, §3
# [16] = test system: Streptococcus pneumoniae; experiment: reference broth microdilution susceptibility assay; type: cell-based; details: Table III
# From the text: as §2, §3
# [17] = test system: human umbilical vein endothelial cells (HUVEC); experiment: HUVEC growth inhibition, sulforhodamine B assay; type: cell-based; details: for Relative % Growth: HUVEC; for Human Umbilical Vein Endothelial Cell (HUVEC) Inhibition Values (GI50): Table V
# Protocol: (§4) In vitro Matrigel antiangiogenesis assays were implemented according to the Developmental Therapeutics Program NCI/NIH protocols known to one of skill in the art. Matrigel, a basement membrane matrix, was obtained from BD Biosciences. Growth inhibition and cord formation assays were Conducted using human umbilical vein endothelial cells obtained from GlycoTeCh. HUVEC cells were grown in EGM-2 medium.
# The standard sulforhodamine B assay (see Cancer Cell Line Procedures above) was used to evaluate results using HUVEC cells. IC50 or ED50 (drug concentration causing 50% inhibition) was calculated from the plotted data.
# [18] = test system: human umbilical vein endothelial cells (HUVEC); experiment: Matrigel cord formation assay; type: cell-based; design: key to Lengths of Cords: −: No Cords; +: Small; ++: ˜50% of Control; +++: Same as Control; details: 24 hours, compared to untreated controls
# Protocol: as §4
# (§5) An aliquot of sixty microliters was placed in each well of an ice-cold 96-well plate. The plates were then left for 15 minutes at room temperature, then incubated for 30 minutes at 37° C. to permit the matrigel to polymerize. Meanwhile, HUVEC cells were harvested and diluted to a concentration of 2×10^5 cells/ml. A solution of 100 μL containing the compounds to be tested was added next. After 24 hours incubation, pictures were taken for each concentration using an inverted Nikon Diaphot microscope and D100 digital camera. Drug effect was assessed, compared to untreated controls, by measuring the length of cords formed and number ofjunctions.
# [19] = test system: human umbilical vein endothelial cells (HUVEC); experiment: Matrigel cord formation assay; type: cell-based; design: key: −: No Junctions; +: Few; ++: ˜50% of Control; +++: Same as Control; details: 24 hours, compared to untreated controls
# Protocol: as §4, §5
melting point,Compound,Human cancer cell line inhibition (GI50) Breast adn MCF-7 [1],Human cancer cell line inhibition (GI50) CNS SF268 [2],Human cancer cell line inhibition (GI50) Colon KM20L2 [3],Human cancer cell line inhibition (GI50) Lung-NSC NCI-H460 [4],Human cancer cell line inhibition (GI50) Pancreas-a BXPC-3 [5],Human cancer cell line inhibition (GI50) Prostate DU-145 [6],"Range of minimum inhibitory concentration, Candida albicans [7]","Range of minimum inhibitory concentration, Cryptococcus neoformans [8]","Range of minimum inhibitory concentration, Enterobacter cloacae [9]","Range of minimum inhibitory concentration, Enterococcus faecalis [10]","Range of minimum inhibitory concentration, Escherichia coli [11]","Range of minimum inhibitory concentration, Micrococcus luteus [12]","Range of minimum inhibitory concentration, Neisseria gonorrhoeae [13]","Range of minimum inhibitory concentration, Staphylococcus aureus [14]","Range of minimum inhibitory concentration, Stenotrophomonas maltophilia [15]","Range of minimum inhibitory concentration, Streptococcus pneumoniae [16]",other results
103 to 104 °C,COc1ccc(/C=C\c2cc(I)c(OC)c(OC)c2)cc1C(C)=O,,,,,,,,,,,,,,,,,
,"3-Fluoro-4,4′,5-trimethoy-3′-hydroxy-E-stilhene [Compound 11b]",0.051 µg/mL,350 ng/mL,0.53 µg/mL,180 ng/mL,2.2 µg/mL,180 ng/mL,* (no inhibition at 64 μg/ml),64 µg/mL,* (no inhibition at 64 μg/ml),* (no inhibition at 64 μg/ml),* (no inhibition at 64 μg/ml),16 to 32 µg/mL,8 to 16 µg/mL,32 to 64 µg/mL,* (no inhibition at 64 μg/ml),64 µg/mL,
138 to 140 °C,"COc1ccc(/C=C/c2cc(Cl)c(OC)c(OC)c2)cc1O [Compound 12b, 3-Chloro-4,4′,5-trimethoxy-3′-hydroxy-E-stilbene]",,,,,,,,,,,,,,,,,GI50 [1]: 0.041 µg/mL; GI50 [2]: 0.048 µg/mL; GI50 [3]: 1.4 µg/mL; GI50 [4]: 0.034 µg/mL; GI50 [5]: 0.59 µg/mL; GI50 [6]: 0.038 µg/mL
121 to 122 °C,"COc1ccc(/C=C\c2cc(I)c(OC)c(I)c2)cc1C(C)=O [Compound 22c, 3,5-diiodo-4,4′-dimethoxy-3′-acetyl-z-stilbene]",,,,,,,,,,,,,,,,,
,"Sodium 3,5-diiodo-4,4′dimethoxy-z-stilbene 3′-O-phosphate [Compound T (Table Ia)]",,,,,,,,,,,,,,,,,Relative % Growth ([17]; 0.0001 μg/ml): >100%; Relative % Growth ([17]; 0.01 μg/ml): >100%; Relative % Growth ([17]; 0.1 μg/ml): −2%; Relative % Growth ([17]; 1 μg/ml): −7%; Human Umbilical Vein Endothelial Cell (HUVEC) Inhibition Values (GI50) [17]: 0.051 µg/mL; Lengths of Cords ([18]; 0.1 μg/ml): +; Lengths of Cords ([18]; 1 μg/ml): −; Number of junctions ([19]; 1 μg/ml): −
,"Sodium 3-fluoro-4,4′,5-trimethoxy-Z-stilbene 3′-O-phosphate [Compound 18a]",0.0044 µg/mL,5.1 ng/mL,1.5 µg/mL,9.4 ng/mL,0.59 µg/mL,3.6 ng/mL,* (no inhibition at 64 μg/ml),* (no inhibition at 64 μg/ml),* (no inhibition at 64 μg/ml),* (no inhibition at 64 μg/ml),* (no inhibition at 64 μg/ml),* (no inhibition at 64 μg/ml),16 µg/mL,* (no inhibition at 64 μg/ml),* (no inhibition at 64 μg/ml),* (no inhibition at 64 μg/ml),
,"Sodium 3-iodo-4,4′,5-trimethoxy-z-stilbene 3′-O-phosphate [Compound 20a]",0.012 µg/mL,5.2 ng/mL,0.37 µg/mL,3.1 ng/mL,0.47 µg/mL,7.8 ng/mL,* (no inhibition at 64 μg/ml),* (no inhibition at 64 μg/ml),* (no inhibition at 64 μg/ml),* (no inhibition at 64 μg/ml),* (no inhibition at 64 μg/ml),* (no inhibition at 64 μg/ml),16 to 32 µg/mL,* (no inhibition at 64 μg/ml),* (no inhibition at 64 μg/ml),* (no inhibition at 64 μg/ml),Relative % Growth ([17]; 0.0001 μg/ml): 104%; Relative % Growth ([17]; 0.001 μg/ml): 5%; Relative % Growth ([17]; 0.01 μg/ml): 14%; Relative % Growth ([17]; 0.1 μg/ml): 7%; Human Umbilical Vein Endothelial Cell (HUVEC) Inhibition Values (GI50) [17]: 0.00035 µg/mL; Lengths of Cords ([18]; 0.001 μg/ml): +; Lengths of Cords ([18]; 0.01 μg/ml): −; Lengths of Cords ([18]; 0.1 μg/ml): −; Number of junctions ([19]; 0.001 μg/ml): +; Number of junctions ([19]; 0.01 μg/ml): −; Number of junctions ([19]; 0.1 μg/ml): −

Compound,melting point,Human cancer cell line inhibition (GI50) Breast adn MCF-7 [1],Human cancer cell line inhibition (GI50) CNS SF268 [2],Human cancer cell line inhibition (GI50) Colon KM20L2 [3],Human cancer cell line inhibition (GI50) Lung-NSC NCI-H460 [4],Human cancer cell line inhibition (GI50) Pancreas-a BXPC-3 [5],Human cancer cell line inhibition (GI50) Prostate DU-145 [6],"Range of minimum inhibitory concentration, Candida albicans [7]","Range of minimum inhibitory concentration, Cryptococcus neoformans [8]","Range of minimum inhibitory concentration, Enterobacter cloacae [9]","Range of minimum inhibitory concentration, Enterococcus faecalis [10]","Range of minimum inhibitory concentration, Escherichia coli [11]","Range of minimum inhibitory concentration, Micrococcus luteus [12]","Range of minimum inhibitory concentration, Neisseria gonorrhoeae [13]","Range of minimum inhibitory concentration, Staphylococcus aureus [14]","Range of minimum inhibitory concentration, Stenotrophomonas maltophilia [15]","Range of minimum inhibitory concentration, Streptococcus pneumoniae [16]",other results
"COc1ccc(/C=C/c2cc(I)c(OC)c(OC)c2)cc1O [Compound 14b, 3-Iodo-4,4′,5-trimethoxy-3′-hydroxy-E-stilbene]",111 to 113 °C,,,,,,,* (no inhibition at 64 μg/ml),64 µg/mL,* (no inhibition at 64 μg/ml),* (no inhibition at 64 μg/ml),* (no inhibition at 64 μg/ml),4 to 8 µg/mL,4 to 16 µg/mL,8 to 64 µg/mL,* (no inhibition at 64 μg/ml),* (no inhibition at 64 μg/ml),GI50 [1]: 0.18 µg/mL; GI50 [2]: 0.55 µg/mL; GI50 [3]: 1.7 µg/mL; GI50 [4]: 0.21 µg/mL; GI50 [5]: 2.7 µg/mL; GI50 [6]: 0.27 µg/mL
